Measurements published in PMC11051419, “Structural Insights into the Marine Alkaloid Discorhabdin G as a Scaffold towards New Acetylcholinesterase Inhibitors” (Marine Drugs, 2024).
Where two headings read alike, the source gives them in different places.

Tests used:
[1] = target: T1, electric eel acetylcholinesterase (eeAChE) (Electrophorus electricus, UniProt O42275); assay: Inhibition of electric eel acetylcholinesterase (modified Ellman method); assay type: biochemical; conditions: for Ki: Dixon plot, substrate 0.125, 0.25, 0.5 mM; for Ki / IC50: 3 as acetate salt; for IC50: Ellman method, pH 7.4, 25 °C; for type of inhibition against eeAChE: kinetic analysis, Dixon plot (Figure S4)
T1 construct: purchased Sigma-Aldrich
Method: (§1) The inhibition of cholinesterase activity was determined using a modification of the Ellman method, which was adapted for microtiter plates. Stock solutions of 3, 7, and 8 (2 mg/mL) were prepared in pure EtOH. […] Stock solutions of the potential inhibitors and the positive controls were added to the microtiter plate wells and progressively diluted in 100 mM potassium phosphate buffer (pH 7.4) to a final volume of 50 μL. Then, 100 μL acetylthiocholine chloride (1 mM) and 5,5′-dithiobis-2-nitrobenzoic acid (0.5 mM) in 100 mM potassium phosphate buffer (pH 7.4) was added into the microtiter plate wells. The cholinesterases that were used (eeAChE, hAChE, and BChE; all from Sigma-Aldrich, St. Louis, MO, USA) were dissolved in 100 mM potassium phosphate buffer (pH 7.4) to a final concentration of 0.0075 U/mL. Each cholinesterase solution (50 μL) was added into the microtiter plate wells to start the reaction, which was followed spectrophotometrically at 405 nm at 25 °C over 5 min using a kinetic microplate reader (Dynex Technologies Inc., Chantilly, VA, USA). Blank reactions without inhibitors were run with the appropriate dilutions of EtOH, and the readings were corrected according to the corresponding blanks. Each measurement was repeated at least three times. […] The data were analyzed using the OriginPro software (OriginPro 2021 (9.8), OriginLab Corporation, Northampton, MA, USA).

[2] = target: T2, horse serum butyrylcholinesterase (BChE) (Equus caballus, UniProt P81908); assay: Inhibition of horse serum butyrylcholinesterase (modified Ellman method); assay type: biochemical; conditions: for IC50: Ellman method, pH 7.4, 25 °C, 3 as acetate salt; for type of inhibition against BChE: kinetic analysis, Dixon plot (Figure S4)
T2 construct: human recombinant AChE (hAChE), and horse serum BChE; purchased Sigma-Aldrich; host or cells: horse serum
Method: as §1

[3] = target: T3, human recombinant acetylcholinesterase (hAChE) (Homo sapiens, UniProt P22303); assay: Inhibition of human recombinant acetylcholinesterase (modified Ellman method); assay type: biochemical; conditions: for Ki: Dixon plot, substrate 0.125, 0.25, 0.5 mM; for Ki / IC50: 3 as acetate salt; for IC50: Ellman method, pH 7.4, 25 °C; for type of inhibition against hAChE: kinetic analysis, Dixon plot (Figure S4)
T3 construct: purchased Sigma-Aldrich
Method: as §1

[4] = tested on: neuromuscular transmission or skeletal muscle function; conditions: electrophysiological study; cited from earlier work
[5] = target: T2, horse serum butyrylcholinesterase (BChE); conditions: cited from earlier work
[6] = target: T3, human recombinant acetylcholinesterase (hAChE); conditions: cited from earlier work
[7] = target: T1, electric eel acetylcholinesterase (eeAChE); conditions: cited from earlier work
[8] = discorhabdin G as trifluoroacetate (TFA) salt, ref Botić et al. [5]

T1 sequence (O42275 24-633): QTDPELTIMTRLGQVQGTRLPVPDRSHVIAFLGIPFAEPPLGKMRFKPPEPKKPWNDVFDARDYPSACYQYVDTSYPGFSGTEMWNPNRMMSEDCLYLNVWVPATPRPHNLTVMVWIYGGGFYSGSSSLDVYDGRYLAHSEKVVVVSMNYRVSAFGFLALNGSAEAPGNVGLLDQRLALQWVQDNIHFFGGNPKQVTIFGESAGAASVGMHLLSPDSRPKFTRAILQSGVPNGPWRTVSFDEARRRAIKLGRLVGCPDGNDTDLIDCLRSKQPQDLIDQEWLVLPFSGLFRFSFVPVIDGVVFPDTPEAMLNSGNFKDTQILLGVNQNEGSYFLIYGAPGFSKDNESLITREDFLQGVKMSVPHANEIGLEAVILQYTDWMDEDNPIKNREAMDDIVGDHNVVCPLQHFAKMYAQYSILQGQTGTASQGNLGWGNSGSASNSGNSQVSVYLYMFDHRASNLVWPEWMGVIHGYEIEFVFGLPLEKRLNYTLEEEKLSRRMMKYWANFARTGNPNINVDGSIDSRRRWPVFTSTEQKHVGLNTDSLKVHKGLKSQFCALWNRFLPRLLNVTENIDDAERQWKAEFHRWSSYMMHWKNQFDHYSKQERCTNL
T2 sequence (P81908 whole entry): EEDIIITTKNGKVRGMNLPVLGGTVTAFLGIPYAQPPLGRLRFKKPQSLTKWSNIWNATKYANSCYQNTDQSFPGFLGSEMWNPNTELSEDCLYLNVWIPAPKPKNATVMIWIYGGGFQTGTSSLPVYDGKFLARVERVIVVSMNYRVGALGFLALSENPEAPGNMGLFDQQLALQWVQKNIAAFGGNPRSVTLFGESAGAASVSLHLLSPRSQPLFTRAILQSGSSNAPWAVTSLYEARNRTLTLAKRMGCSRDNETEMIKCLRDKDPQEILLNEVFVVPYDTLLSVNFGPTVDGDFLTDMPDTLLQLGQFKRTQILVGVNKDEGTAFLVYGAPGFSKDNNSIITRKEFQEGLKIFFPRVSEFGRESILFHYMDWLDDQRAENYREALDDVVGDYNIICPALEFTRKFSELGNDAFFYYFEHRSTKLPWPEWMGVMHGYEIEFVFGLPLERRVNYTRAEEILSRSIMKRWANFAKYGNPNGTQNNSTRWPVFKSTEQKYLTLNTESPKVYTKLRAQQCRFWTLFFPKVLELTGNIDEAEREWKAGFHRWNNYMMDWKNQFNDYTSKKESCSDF
T3 sequence (P22303 32-614): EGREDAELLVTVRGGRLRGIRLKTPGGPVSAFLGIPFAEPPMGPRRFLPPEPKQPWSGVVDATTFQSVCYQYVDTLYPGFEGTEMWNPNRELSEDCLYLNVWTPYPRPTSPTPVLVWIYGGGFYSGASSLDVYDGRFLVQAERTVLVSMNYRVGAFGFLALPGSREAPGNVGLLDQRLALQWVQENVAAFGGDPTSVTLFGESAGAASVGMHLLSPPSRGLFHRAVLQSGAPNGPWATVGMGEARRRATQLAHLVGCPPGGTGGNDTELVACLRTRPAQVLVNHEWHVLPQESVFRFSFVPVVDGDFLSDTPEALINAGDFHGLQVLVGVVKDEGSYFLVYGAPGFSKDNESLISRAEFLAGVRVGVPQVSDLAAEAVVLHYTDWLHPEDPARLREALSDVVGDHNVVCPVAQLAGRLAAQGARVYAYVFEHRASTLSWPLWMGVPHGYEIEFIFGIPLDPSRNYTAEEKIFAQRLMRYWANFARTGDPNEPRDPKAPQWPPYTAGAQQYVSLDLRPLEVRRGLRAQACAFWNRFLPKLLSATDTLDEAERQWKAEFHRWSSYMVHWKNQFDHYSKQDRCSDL

Which Ki [1] does the source give for `Cc1nc2c3n1CCN=C3c1ccccc1C2=O` [Compound 3, 5-methyl-2H-benzo[h]imidazo[1,5,4-de]quinoxalin-7(3H)-one] here?
Its Ki is 7.3 µM.

And the IC50 [1]?
Its IC50 is 13.5 µM.

What about the “type of inhibition against eeAChE” value [1] of the same molecule?
The value was “reversible competitive”.

And the IC50 [2]?
The IC50 was > 400 µM.

And the “type of inhibition against BChE” value [2]?
The value was “reversible competitive”.

What about the Ki [3] of the same molecule?
The Ki was 5.8 µM.

And the IC50 [3]?
Its IC50 is 16.9 µM.

What about the “type of inhibition against hAChE” value [3] of the same molecule?
The value was “reversible competitive”.

For `Cc1nc2c(o1)C(=O)c1ccccc1C2=O` [Compound 7, 2-methylnaphtho[2,3-d]oxazole-4,9-dione], which Ki [1] is on record?
Its Ki is 65 µM.

What about the IC50 [1] of the same molecule?
Its IC50 is 188 µM.

What about the “type of inhibition against eeAChE” value [1] of the same molecule?
Its value is “reversible competitive”.

What about the Ki ([2]; Dixon plot, substrate 0.125, 0.25, 0.5 mM) of the same molecule?
The Ki was 50 µM.

What about the IC50 [2] of the same molecule?
The IC50 was 145 µM.

And the “type of inhibition against BChE” value [2]?
Its value is “reversible competitive”.

And the Ki [3]?
Its Ki is 50 µM.

And the IC50 [3]?
The IC50 was 234 µM.

What about the “type of inhibition against hAChE” value [3] of the same molecule?
The value was “reversible competitive”.

With `CC(=O)NC1=C2NCCN=C2c2ccccc2C1=O` [Compound 8, N-(6-oxo-2,3,4,6-tetrahydrobenzo[f]quinoxalin-5-yl)acetamide] as the molecule, how does the IC50 [1] read?
Its IC50 is > 400 µM.

What about the IC50 [2] of the same molecule?
Its IC50 is > 400 µM.

What about the IC50 [3] of the same molecule?
Its IC50 is > 400 µM.

For `CN(C)C(=O)Oc1cccc([N+](C)(C)C)c1` [Neostigmine methylsulfate, reference compound], which IC50 [1] is on record?
Its IC50 is 6 µM.

What about the IC50 [2] of the same molecule?
Its IC50 is 83.7 µM.

For discorhabdin G [Compound 1], which “adverse effects on neuromuscular transmission or skeletal muscle function” value [4] is on record?
Its value is “no adverse effects”.

What about the IC50 [5, 8] of the same molecule?
The IC50 was 7 µM.

What about the Ki [5, 8] of the same molecule?
The Ki was 5 µM.

And the “type of inhibition against BChE” value ([5]; previously observed)?
Its value is “reversible competitive”.

And the IC50 [6, 8]?
The IC50 was 116 µM.

What about the Ki [6, 8] of the same molecule?
The Ki was 56.2 µM.

What about the “type of inhibition against hAChE” value ([6]; previously observed) of the same molecule?
Its value is “reversible competitive”.

What about the IC50 [7, 8] of the same molecule?
Its IC50 is 1.3 µM.

And the Ki [7, 8]?
Its Ki is 1.6 µM.

And the “type of inhibition against eeAChE” value ([7]; previously observed)?
The value was “reversible competitive”.
